Measurements taken from patent US10834886B2, “Switchgrass cultivar PanIR” (priority 2017, dated 2020).

Key:
[1] = tested on: switchgrass cultivars, Alamo and Kanlow; details: pre-plant application; cited from earlier work
Rapid Germ Switchgrass = test: Field emergence: seedlings surviving imazapic application; format: in vivo, Panicum virgatum; details: 14 oz/A
Experimental: (§1) Plants were seeded in July and August of 2014 and during May of 2015. Data presented in Table 4 indicates 2014 testing at three locations (Brooksville, Newton, and Starkville). At all locations, PanIR seedling numbers exceeded all other generations of selection as well as the resistant check (indiangrass).

Cycle 1 switchgrass = test: as above; format: in vivo, Panicum virgatum; details: 14 oz/A
Experimental: as §1

[2] = tested on: PanIR (Cycle 3) switchgrass; test: as above; format: in vivo, Panicum virgatum; details: 14 oz/A
Experimental: as §1

Cycle 2 switchgrass = test: as above; format: in vivo, Panicum virgatum; details: 14 oz/A
Experimental: as §1

[3] = tested on: Alamo (Cycle 0) switchgrass; test: as above; format: in vivo, Panicum virgatum; details: 14 oz/A
Experimental: as §1

[4] = tested on: Cycle1 switchgrass seedlings; test: Herbicide screening of seedlings, First: Second Generation Selection; format: in vivo
Experimental: Subsequent testing of the first generation seed/seedlings was conducted in the same manner as the initial herbicide screenings. The planting of the trays consisted of 8 rows of the first generation, one row Alamo, and one row indiangrass (tolerant control).
Seedlings of Cycle1 (315,360) were screened for tolerance to 14 oz/A (2×) rate of Plateau®. Ninety-seven (97) survived the initial imazapic application. Sixty-eight (68) succumbed to a second (8 oz/A) application leaving twenty-nine (29) tolerant individuals which were planted in an isolated crossing block at Longview, Miss. (33.404999, −88.938283) as Cycle2.

[5] = tested on: Alamo switchgrass seedlings (Cycle0); test: Herbicide screening of seedlings, Zero: First Generation Selection; format: in vivo, Panicum virgatum
Experimental: Selection for herbicide resistance was conducted using methods similar to the study performed by Bahler and others (1983). Heavy duty plastic and metal trays measuring 51.5 cm×36.5 cm were used to hold the germinating seedlings during growth and also allowed for easy maintenance and efficient application of herbicide. The testing was conducted in a greenhouse that maintained a nightly temperature of 20° C. and a daily temperature of 30° C. Before the autumnal equinox, day length was not supplemented for the experiment. After the equinox, light was extended to 16 hrs. Day length is a concern due to switchgrass' photoperiodic nature. Eight trays represent a replicate, which were repeated over time. Each tray was filled with autoclaved field soil approximately ¾ full. A 2.5 cm×30.5 cm piece of PVC pipe was used to form ten micro-furrows spaced at 5 cm within each tray. Nine of the ten rows were planted with approximately […] Alamo switchgrass seed (Sharp Brothers, Healy, Kans.). The remaining, randomly selected row was planted with 250 indiangrass seed (MSU 3rd cycle of selection for precocious germination). One hundred (100) seed were evenly dispersed within each furrow of the flat; flats were top-dressed with 0.63 cm of autoclaved field soil. The trays were watered on a daily basis. Emergence of the seedlings usually took place 6-8 days after planting. Once the seedlings broke the soil surface, they were allowed to grow to the three leaf stage (approximately 14 days). A calibrated spray chamber was used to apply the herbicide to the seedlings in the trays. For imazapic, the recommended rate is 140 g a.i./ha on mixed grassland, applied with less than 93.54 liters of water per hectare, sprayed at a constant pressure of 40 psi. A spray adjuvant (nonionic surfactant) was added to the formulation. In order to achieve the correct amounts for the spray mixture, the following calculations were made: (8 fl.oz./1 ac.)×(1 ac./15 gal.sol.)×(1 gal./128 fl.oz.sol.)×(20 f.oz.sol./1 bottle)×(3785 ml/128 fl.oz.)=2.46 ml/1 bottle H2O (3-1) The formulation requires 2.46 mls of Plateau®, 1.5 mls of surfactant, and 556 mls of water to fill the spray bottle for the chamber. The trays were placed two at a time in the chamber and sprayed at a fixed speed ([…]) to ensure proper dosage. A dose response curve was conducted on the sixth trial to determine the rate of Plateau® that would kill a majority of the switchgrass seedlings (Table 1).
The upper limit was 245 g a.i./ha, which exceeded the labeled rate for big bluestem and indiangrass. […] Eight trays represented the curve and were assessed on the amount of discoloration relative to the unsprayed tray. […]

PanIR Cycle3 switchgrass = test: Agar/growth chamber germination on water agar + imazapic; format: in vivo, Panicum virgatum; details: 2.3 times higher rate, controlled conditions
Excerpt: (§2) Since field emergence relies on soil tilth, rainfall, planter depth, and a host of other conditions, the inventors opted for a more uniform method of testing resistance: imazapic-dosed water agar. Data from germination under controlled conditions indicated significant progress for resistance to imazapic (Table 3) over three cycles of selection.

[6] = tested on: Alamo (Cycle0) lowland switchgrass; test: as above; format: in vivo, Panicum virgatum; details: controlled conditions
Excerpt: as §2

[7] = tested on: Indiangrass (resistant check); test: Field emergence: seedlings surviving imazapic application; format: in vivo, Sorghastrum nutans; details: 14 oz/A
Experimental: as §1

switchgrass stands = details: in vivo; cited from earlier work

CCC(CC)Nc1c([N+](=O)[O-])cc(C)c(C)c1[N+](=O)[O-] [Pendimethalin, pendimethalin]
mortality of stands [1]: up to 50%

Cc1cnc(C2=NC(C)(C(C)C)C(=O)N2)c(C(=O)O)c1 (stereo not shown) [imazapic, 5-methyl-2-[4-methyl-5-oxo-4-(propan-2-yl)-4,5-dihydro-1H-imidazol-2-yl]pyridine-3-carboxylic acid]
Number of seedlings surviving, 42 days after spraying (Rapid Germ Switchgrass; Brooksville 2014): 2.75 B seedlings emerged per 30 cm of row | Number of seedlings surviving, 42 days after spraying (Rapid Germ Switchgrass; Brooksville 2015): 0.00 C seedlings emerged per 30 cm of row | Number of seedlings surviving, 42 days after spraying (Rapid Germ Switchgrass; Newton 2014): 2.00 B seedlings emerged per 30 cm of row | Number of seedlings surviving, 42 days after spraying (Rapid Germ Switchgrass; Starkville 2014): 2.00 C seedlings emerged per 30 cm of row | Number of seedlings surviving, 42 days after spraying (Rapid Germ Switchgrass; Starkville 2015): 1.00 B seedlings emerged per 30 cm of row | Number of seedlings surviving, 42 days after spraying (Cycle 1 switchgrass; Brooksville 2014): 8.25 B seedlings emerged per 30 cm of row | Number of seedlings surviving, 42 days after spraying (Cycle 1 switchgrass; Brooksville 2015): 19.25 BC seedlings emerged per 30 cm of row | Number of seedlings surviving, 42 days after spraying (Cycle 1 switchgrass; Newton 2014): 10.25 B seedlings emerged per 30 cm of row | Number of seedlings surviving, 42 days after spraying (Cycle 1 switchgrass; Starkville 2014): 3.25 C seedlings emerged per 30 cm of row | Number of seedlings surviving, 42 days after spraying (Cycle 1 switchgrass; Starkville 2015): 2.00 B seedlings emerged per 30 cm of row | Number of seedlings surviving, 42 days after spraying ([2]; Brooksville 2014): 53.00 A seedlings emerged per 30 cm of row | Number of seedlings surviving, 42 days after spraying ([2]; Brooksville 2015): 115.75 A seedlings emerged per 30 cm of row | Number of seedlings surviving, 42 days after spraying ([2]; Newton 2014): 43.00 A seedlings emerged per 30 cm of row | Number of seedlings surviving, 42 days after spraying ([2]; Starkville 2014): 49.50 A seedlings emerged per 30 cm of row | Number of seedlings surviving, 42 days after spraying ([2]; Starkville 2015): 16.00 A seedlings emerged per 30 cm of row | Number of seedlings surviving, 42 days after spraying (Cycle 2 switchgrass; Brooksville 2014): 14.25 B seedlings emerged per 30 cm of row | Number of seedlings surviving, 42 days after spraying (Cycle 2 switchgrass; Brooksville 2015): 18.75 BC seedlings emerged per 30 cm of row | Number of seedlings surviving, 42 days after spraying (Cycle 2 switchgrass; Newton 2014): 13.00 B seedlings emerged per 30 cm of row | Number of seedlings surviving, 42 days after spraying (Cycle 2 switchgrass; Starkville 2014): 13.75 BC seedlings emerged per 30 cm of row | Number of seedlings surviving, 42 days after spraying (Cycle 2 switchgrass; Starkville 2015): 5.67 B seedlings emerged per 30 cm of row | Number of seedlings surviving, 42 days after spraying ([3]; Brooksville 2014): 2.00 B seedlings emerged per 30 cm of row | Number of seedlings surviving, 42 days after spraying ([3]; Brooksville 2015): 5.75 BC seedlings emerged per 30 cm of row | Number of seedlings surviving, 42 days after spraying ([3]; Newton 2014): 6.50 B seedlings emerged per 30 cm of row | Number of seedlings surviving, 42 days after spraying ([3]; Starkville 2014): 8.25 BC seedlings emerged per 30 cm of row | Number of seedlings surviving, 42 days after spraying ([3]; Starkville 2015): 1.00 B seedlings emerged per 30 cm of row | selection intensity ([4]; Cycle1: 29 seedlings selected out of 36,441 seedlings): 0.0795% | mortality rate ([4]; seedlings produced from the first cycle polycross of selection): greater than 75% | selection intensity ([5]; 364,650 seedlings, 63 survivors, 245 g a.i./ha): 0.0172% | selection intensity ([5]; Cycle0 (Alamo): 63 individuals selected out of 306,000 seedlings): 0.0205% | individuals surviving the initial screening ([5]; approximately 364,650 Alamo individuals screened, 8 oz/A): 78 individuals | individuals remaining in base population after second screening ([5]; the 78 survivors exposed to one-time application of 14 oz/A): 63 individuals | resistance as percentage of the population (PanIR Cycle3 switchgrass): about 93.6% | resistance as percentage of the population [6]: approximately 3% | Number of seedlings surviving, 42 days after spraying ([7]; Brooksville 2014): 16.25^†B* seedlings emerged per 30 cm of row | Number of seedlings surviving, 42 days after spraying ([7]; Brooksville 2015): 24.50^†B* seedlings emerged per 30 cm of row | Number of seedlings surviving, 42 days after spraying ([7]; Newton 2014): 14.50 B seedlings emerged per 30 cm of row | Number of seedlings surviving, 42 days after spraying ([7]; Starkville 2014): 19.75 B seedlings emerged per 30 cm of row | Number of seedlings surviving, 42 days after spraying ([7]; Starkville 2015): 13.33 B seedlings emerged per 30 cm of row

CCNc1nc(Cl)nc(NC(C)C)n1 [atrazine]
effect on switchgrass stands (switchgrass stands): no deleterious effects
